Data: US8129547B2, “Anticoagulation of human blood ex vivo” (priority 2006, dated 2012)

What was measured:
Factor XIIa = biological target: T1, Factor XIIa (Homo sapiens, UniProt P00748); assay: Determination of Ki values, chromogenic substrate, Dixon evaluation: Factor XIIa; assay type: biochemical; settings: 25° C., tris buffer pH 8.0, substrate H-D-HHT-Gly-Arg-pNA
T1 construct: purchased Haemochrom Diagnostica GmbH (Essen, D)
T1 sequence (P00748 373-615 limits assumed): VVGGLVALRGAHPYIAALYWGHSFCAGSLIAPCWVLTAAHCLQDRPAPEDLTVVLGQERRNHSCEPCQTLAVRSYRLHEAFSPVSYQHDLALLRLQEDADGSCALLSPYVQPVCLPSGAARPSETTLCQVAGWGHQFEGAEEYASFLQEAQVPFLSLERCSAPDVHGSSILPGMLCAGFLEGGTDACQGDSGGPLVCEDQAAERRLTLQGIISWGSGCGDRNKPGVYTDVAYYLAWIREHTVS
Text: (§1) The inhibitors used here are the commercially available exemplary inhibitors Pefabloc tPA/Xa (2,7-bis(4-amidinobenzylidene)-cyclopeptanone-(1), Pentapharm Ltd. Basel, Switzerland), CJ-FXa (benzylsulphonyl-D-arginyl-glycyl-4-amidinobenzylamide, Haemochrom GmbH, Essen, Germany) and CJ-PK (benzylsulphonyl-D-seryl-carbobenzoxylsyl-4-amidinobenzylamide, Haemochrom GmbH, Essen, Germany). Research samples were available of DX-9065a ((+)-(2S)-2-[4-[[3S)-1-acetimidoyl-3-pyrrodinyl]oxy]phenyl]-3-[7-amidino-2-naphthyl]propanic acid, Daiichi Pharmaceutical Company Ltd., Tokyo, Japan), and Otamixaban (2-(R)-(3-carbamimidoylbenyzyl)-3-(R)-[4-(1-oxypyridin-4-yl)benzoylamino]-butyric acid-methylester, Sanofi-Aventis GmbH, Frankfurt, Germany), both of which are undergoing clinical tests. In order to examine the inhibitory action of these exemplarily used inhibitors on the blood coagulation factors plasma-kallikrein, VIIa, Xa, XIa and XIIa, the Ki values of the respective enzyme-inhibitor complexes were determined.
(§2) The enzymes were produced by Haemochrom Diagnostica GmbH (Essen, D) and were dissolved in 0.154 mol/l NaCl. The substrates (Pentapharm AG, Basel, CH) were dissolved in H2O and the inhibitor was dissolved in the above-mentioned tris buffer. The following substrates were used for the individual enzymes:
(§3) 200 μl of inhibitor solution were mixed with 25 μl of substrate for the determination and the reaction was started by the addition of 50 μl of enzyme. After a reaction time of 3-5 mins. 25 μl of acetic acid (50%) were added and the extinction was measured at 405 nm with a microplate reader (iEMS Reader MF 12401, Labsystems, Helsinki, Finland). The evaluation was carried out graphically according to Dixon (Biochem. J., 55, 170, 1953).
(§4) The enzymes were produced by Haemochrom Diagnostica GmbH (Essen, D), and only thrombin was manufactured in our own laboratory according to Walsmann (Pharmazie 23, 401-402, 1968). All the enzymes were dissolved in 0.154 mol/l NaCl. The substrates (Pentapharm AG, Basel, CH) were dissolved in H2O and the inhibitor was dissolved in the above-mentioned tris buffer. The following substrates were used for the individual enzymes:
as §3, with “1401,” for “12401,”

Factor VIIa = biological target: T2, Factor VIIa (Homo sapiens, UniProt P08709); assay: Determination of Ki values, chromogenic substrate, Dixon evaluation: Factor VIIa; assay type: biochemical; settings: 25° C., tris buffer pH 8.0, substrate CH3SO2-D-phe-Gly-Arg-pNA
T2 construct: purchased Haemochrom Diagnostica GmbH (Essen, D)
T2 sequence (P08709 213-466 limits assumed): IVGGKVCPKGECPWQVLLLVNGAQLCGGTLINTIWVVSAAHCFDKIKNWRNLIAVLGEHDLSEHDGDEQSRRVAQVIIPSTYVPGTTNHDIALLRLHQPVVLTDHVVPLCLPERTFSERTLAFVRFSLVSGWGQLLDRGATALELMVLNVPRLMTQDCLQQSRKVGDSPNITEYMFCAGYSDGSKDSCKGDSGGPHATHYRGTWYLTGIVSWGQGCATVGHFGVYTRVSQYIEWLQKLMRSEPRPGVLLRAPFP
T2 sequence (P08709 61-212 partner limits assumed): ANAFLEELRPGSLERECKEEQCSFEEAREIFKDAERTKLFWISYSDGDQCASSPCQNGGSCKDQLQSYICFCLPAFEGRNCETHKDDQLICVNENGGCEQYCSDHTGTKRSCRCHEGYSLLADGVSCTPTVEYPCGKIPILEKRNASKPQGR
Text: as §1, §2, §3, §4
as §3, with “1401,” for “12401,”

Factor XIa = biological target: T3, Factor XIa (Homo sapiens, UniProt P03951); assay: Determination of Ki values, chromogenic substrate, Dixon evaluation: Factor XIa; assay type: biochemical; settings: 25° C., tris buffer pH 8.0, substrate H-D-Lys(Cbo)-Pro-Arg-pNA
T3 construct: purchased Haemochrom Diagnostica GmbH (Essen, D)
Text: as §1, §2, §3, §4
as §3, with “1401,” for “12401,”

thrombin formation = assay: Inhibition of thrombin formation (prothrombin fragment F1+2) in hirudin-anticoagulated plasma after activation by kaolin; assay type: biochemical, human; settings: 37° C.
Protocol: In this example thrombin formation was activated in plasma anticoagulated with hirudin by the addition of kaolin and the ability of the inhibitors to inhibit thrombin formation was examined.
Blood sampled from a patient was initially anticoagulated by means of the thrombin inhibitor hirudin. For this purpose 9 parts of blood were mixed with 1 part of hirudin solution (recombinant hirudin HBW 023, Hoechst, Frankfurt, 2000 E/ml of physiological NaCl solution), then centrifuged for 10 minutes at 1300 revolutions per minute (rpm). 900 μl of the plasma anticoagulated with hirudin, present in excess, were mixed in polypropylene tubes with 50 μl of inhibitor solution or 0.9% NaCl solution and 50 μl kaolin suspension (from APTT-Test from Roche Diagnostics, diluted 1:250 before use with physiological NaCl solution), and incubated at 37° C. with light shaking. In this case kaolin acts as a non-physiological surface which activates the blood coagulation thereby finally stimulating thrombin formation. At certain times the quantity of the thrombin formed was determined immunologically on the basis of the formation of the prothrombin fragment F1+2 (Enzygnost F1+2 micro, Dade Behring GmbH, Marburg). This determination is based on an enzyme immunoassay according to the sandwich principle. For this purpose aliquot volumes (600 μl) were anticoagulated at certain times with 0.1 M EDTA (40 μl) and kept at −20° C. To determine the concentration of the prothrombin fragment F1+2 50 μl of plasma (if necessary diluted with PBS, phosphate-buffered saline) were incubated with monoclonal antibodies against the human prothrombin fragment F1+2, which were fixed on a microtitre plate included in the test kit. After a washing stage with PBS, which was used to remove sample material not bound by the antibodies, antibodies conjugated with peroxidase were incubated against human prothrombin binding to the free F1+2 determinants. […] This was then determined photometrically at a wavelength of 492 nm. […]

T3 sequence (P03951 388-625 limits assumed): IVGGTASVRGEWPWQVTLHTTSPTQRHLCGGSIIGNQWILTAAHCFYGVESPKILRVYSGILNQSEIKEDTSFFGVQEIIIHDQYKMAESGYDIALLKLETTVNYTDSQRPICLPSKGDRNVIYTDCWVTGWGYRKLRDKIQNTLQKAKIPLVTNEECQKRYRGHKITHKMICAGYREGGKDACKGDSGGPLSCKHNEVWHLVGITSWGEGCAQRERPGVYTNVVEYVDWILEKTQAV
T3 sequence (P03951 19-387 partner limits assumed): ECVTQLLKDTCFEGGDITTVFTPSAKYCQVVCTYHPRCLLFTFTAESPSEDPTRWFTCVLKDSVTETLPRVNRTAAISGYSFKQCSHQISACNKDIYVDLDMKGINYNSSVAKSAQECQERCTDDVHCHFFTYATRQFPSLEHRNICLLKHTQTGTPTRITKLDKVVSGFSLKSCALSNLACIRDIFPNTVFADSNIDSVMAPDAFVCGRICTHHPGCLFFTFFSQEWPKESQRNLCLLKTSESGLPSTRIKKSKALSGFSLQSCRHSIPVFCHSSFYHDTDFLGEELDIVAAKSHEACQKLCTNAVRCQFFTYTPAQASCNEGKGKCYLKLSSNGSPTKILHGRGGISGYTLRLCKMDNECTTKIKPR

COC(=O)[C@H](Cc1cccc(C(=N)N)c1)[C@@H](C)NC(=O)c1ccc(-c2cc[n+]([O-])cc2)cc1 (mixture of isomers) [Otamixaban, 2-(R)-(3-carbamimidoylbenyzyl)-3-(R)-[4-(1-oxypyridin-4-yl)benzoylamino]-butyric acid-methylester]
Ki (Factor XIIa): > 1000 µM
Ki (Factor VIIa): 19 µM
Ki (Factor XIa): 23 µM
suppression/blocking of thrombin formation after kaolin activation (thrombin formation; concentration not stated in the sentence (FIGS. 1-3, 6)): particularly suitable for blocking thrombin formation

N=C(N)c1ccc(C=C2CCCCC(=Cc3ccc(C(=N)N)cc3)C2=O)cc1 [Pefabloc tPA/Xa, 2,7-bis(4-amidinobenzylidene)-cycloheptanone-(1)]
Ki (Factor XIIa): 0.36 µM
Ki (Factor VIIa): 140 µM
Ki (Factor XIa): 42 µM
suppression of thrombin formation after kaolin activation (thrombin formation; inhibitor 100 μM): totally suppressing thrombin formation
